Like-named read-outs stand apart in the source and are kept apart here.
Columns and labels:
AHR = biological target: T1, AHR (UniProt P35869); assay: DRE-Luciferase Reporter Assay (Alternate Method) (Example 1B); type: cell-based, murine or human; settings: cell line and AHR activating ligand not specified
T1 construct: IC50
T1 sequence (P35869 1-848): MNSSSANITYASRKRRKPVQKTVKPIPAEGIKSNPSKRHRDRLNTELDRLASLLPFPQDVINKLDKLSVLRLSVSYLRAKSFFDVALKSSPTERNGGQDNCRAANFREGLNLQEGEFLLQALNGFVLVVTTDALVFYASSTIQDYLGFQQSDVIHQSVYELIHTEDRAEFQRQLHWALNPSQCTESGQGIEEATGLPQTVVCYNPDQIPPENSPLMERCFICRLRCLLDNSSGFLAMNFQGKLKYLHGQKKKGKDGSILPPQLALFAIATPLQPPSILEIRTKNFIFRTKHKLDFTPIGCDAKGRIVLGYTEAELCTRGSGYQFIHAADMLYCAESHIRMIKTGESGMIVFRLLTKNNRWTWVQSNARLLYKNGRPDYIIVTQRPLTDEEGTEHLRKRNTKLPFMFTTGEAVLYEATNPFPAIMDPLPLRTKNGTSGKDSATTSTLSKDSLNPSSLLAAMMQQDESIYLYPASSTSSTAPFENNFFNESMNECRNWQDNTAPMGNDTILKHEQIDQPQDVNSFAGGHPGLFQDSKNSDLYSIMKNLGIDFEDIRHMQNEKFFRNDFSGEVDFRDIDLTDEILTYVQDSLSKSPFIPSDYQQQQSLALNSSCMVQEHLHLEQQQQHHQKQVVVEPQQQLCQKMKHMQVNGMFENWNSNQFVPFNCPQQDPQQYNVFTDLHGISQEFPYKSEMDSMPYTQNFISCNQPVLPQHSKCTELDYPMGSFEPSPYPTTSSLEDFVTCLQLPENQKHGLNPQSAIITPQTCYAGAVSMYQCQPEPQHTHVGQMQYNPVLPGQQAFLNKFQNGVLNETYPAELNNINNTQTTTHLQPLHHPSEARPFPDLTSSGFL

Cyp1a1 = assay: In Vivo Mouse liver and spleen Cyp1a1 Modulation Assay (Example 1E); design: species or system C57BL/6 mice; settings: po, 4 h, dose 30 mg/kg, with AHR agonist VAG539 30 mg/kg po, qPCR
Method: C57BL/6 mice, female, 6-8 weeks old, weighing approximately 18-20 g were purchased from Shanghai Lingchang Biological Technology Co., Ltd or other certified vendors and used in the studies. Animal husbandry, feeding and health conditions are according to animal welfare guidelines. VAG539 (30 mg/kg, po) was used as AHRagonist, and test compounds were formulated in suitable vehicles, typically 0.5% methylcellulose).
C57BL/6 mice (n=3 per group) were treated with AHR agonist alone or with AHR agonist and test compounds. Animals were sacrificed at 4 or 10 hours after treatment upon which their livers and spleens were collected and subsequently analyzed by qPCR. Normalized fold induction of cyp1a1 was determined by comparing mCYP1A1 and mGAPDH counts (ct) according to: normalized fold=2^−ΔΔCt. The percent inhibition was calculated according to: […]

[1] = In Vitro Mouse liver S9 Metabolic Stability Assay (Example 1D); type: in vitro ADME; settings: CD-1 mouse liver S9, 1 μM compound, 1 mg/mL S9 protein, 37° C., NADPH regenerating system, UDPGA, PAPS
Method: CD-1 mouse liver S9 were purchased from Corning or XenoTech LLC or BioreclamationIVT, LLC or WuXi prepared. The cells were stored at −80° C. in a freezer before use. β-Nicotinamide adenine dinucleotide phosphate (NADP), Glucose 6-phosphate (G6P), Glucose 6-phosphate dehydrogenase from yeast (G6PDH), Uridine 5′-diphophoglucuronic acid trisodium salt (UDPGA) and Adenosine 3′-phosphate 5′-phosphosulfate lithium salt hydrate (PAPS) were available commercially from Sigma.
Compounds were diluted in DMSO to make 10 mM stock solution. 5 μL of this stock solution (10 mM, DMSO) was diluted with 45 μL DMSO and 450 μL 50% Methanol/Water to make intermediate stock solution (100 μM, 45% MeOH, 10% DMSO). 50 μL of intermediate stock solution was diluted with 450 μL 100 mM phosphate buffer to make a final stock solution (10 μM, 4.5% MeOH, 1% DMSO). 10 uL of final stock solution was added to 90 uL liver S9 system (final concentration of 1 μM, 0.45% MeOH, 0.1% DMSO).
Test compounds were incubated at 37° C. with liver S9 (pooled from multiple donors) at 1 μM in the presence of a NADPH regenerating system, UDPGA, and PAPS at 1 mg/mL S9 protein. Time samples (0 and 60 minutes) were removed and immediately mixed with cold acetonitrile containing internal standard (IS). Samples were analyzed by LC/MS/MS and disappearance of test compounds were assessed based on peak area ratios of analyte /IS (no standard curve). All samples were injected and analyzed using LC-MS/MS. The analyte/internal standard peak area ratios were converted to percentage remaining (% Remaining) with the following equation: % Remaining at 60 min=(Peak area ratio of analyte to IS at 60 min/Peak area ratio of analyte to IS at t=0)×100%. Table 5. Mouse Stability Data According to Example 1D.

[2] = Mouse Pharmacokinetic Study (Example 1C); type: in vivo; settings: CD-1 mice, plasma; for bioavailability / AUC(0-inf) / AUC(0-t) / clearance / half-life / Vd / Tmax / Cmax: mouse; for Vd: read-out: Vdss
Outline: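 CD-1 mice dosed intravenously or by oral gavage; plasma sampled at 0.167, 0.5, 1, 2, 4, 6, 12 and 24 h post-dose. Samples analyzed by LC/MS/MS (MRM, positive mode) against a plasma standard curve of 1.0–3000 ng/mL; PK parameters from non-compartmental analysis.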

[3] = read-out: Cyp1a1 inhibition, Liver, 4 h
[4] = read-out: Cyp1a1 inhibition, Spleen, 4 h
[5] = po, 15 mg/kg, 3.00 mg/mL in DMSO:solutol:water = 5:10:85, solution

Structure (SMILES)	IC50 (AHR) [nM]	inhibition at 30 mg/kg (Cyp1a1; [3]) [%]	inhibition at 30 mg/kg (Cyp1a1; [4]) [%]	Mouse S9 Stability: % Remaining After 60 Minutes [1] [%]	Tlast [2, 5] [h]	bioavailability [2, 5] [%]	AUC(0-inf) ([2]; iv, 3 mg/kg) [ng·h/mL]	AUC(0-t) ([2]; iv, 3 mg/kg) [ng·h/mL]	clearance ([2]; iv, 3 mg/kg) [mL/min/kg]	half-life ([2]; iv, 3 mg/kg) [h]	Vd ([2]; iv, 3 mg/kg) [L/kg]	Tmax [2, 5] [h]	bioavailability ([2]; po, 30 mg/kg) [%]	AUC(0-inf) ([2]; po, 30 mg/kg) [ng·h/mL]	AUC(0-t) ([2]; po, 30 mg/kg) [ng·h/mL]	Cmax ([2]; po, 30 mg/kg) [ng/mL]	Tmax ([2]; po, 30 mg/kg) [h]	half-life ([2]; po, 30 mg/kg) [h]
CC(C)c1cnn2c(NCCc3c[nH]c4ccccc34)cc(-c3cccnc3)nc12 [I-46, N-[2-(1H-Indol-3-yl)ethyl]-3-isopropyl-5-(3-pyridyl)pyrazolo[1,5-a]pyrimidin-7-amine]	< 500	96	94															
CC(=O)c1cnn2c(NCCc3c[nH]c4ccccc34)cc(-c3cncc(F)c3)nc12 [I-57, 1-[5-(5-Fluoro-3-pyridyl)-7-[2-(1H-indol-3-yl)ethylamino]pyrazolo[1,5-a]pyrimidin-3-yl]ethanone]	< 500	77	66															
Cc1[nH]c2c(F)cc(F)cc2c1CCNc1cc(-c2cncc(F)c2)nc2c(C(C)C)cnn12 [I-107, N-[2-(5,7-Difluoro-2-methyl-1H-indol-3-yl)ethyl]-5-(5-fluoro-3-pyridyl)-3-isopropyl-pyrazolo[1,5-a]pyrimidin-7-amine]	< 500			0	0	0	92	88	540	2.18	43.2	0						
Fc1cncc(-c2nc(N[C@@H]3CCc4[nH]c5ccccc5c4C3)n3ncc(Br)c3n2)c1 [I-154, (3R)—N-[8-Bromo-2-(5-fluoro-3-pyridyl)pyrazolo[1,5-a][1,3,5]triazin-4-yl]-2,3,4,9-tetrahydro-1H-carbazol-3-amine]	< 500			13			3030	2410	16.5	12	13.7		39	11200	9360	840	2	9.6
C[C@@H](O)c1cnn2c(N[C@@H]3CCc4[nH]c5ccccc5c4C3)cc(-c3cncc(F)c3)nc12 [I-198a, (1R)-1-[5-(5-Fluoro-3-pyridyl)-7-[[(3R)-2,3,4,9-tetrahydro-1H-carbazol-3-yl]amino]pyrazolo[1,5-a]pyrimidin-3-yl]ethanol]	< 500			30			772	765	64.8	4.3	12.1		52	4050	3960	721	1	4.2
CN(C)c1cnn2c(NCCc3c[nH]c4ccccc34)cc(-c3cncc(F)c3)nc12 [I-203, 5-(5-fluoro-3-pyridyl)-N7-[2-(1H-indol-3-yl)ethyl]-N3,N3-dimethyl-pyrazolo[1,5-a]pyrimidine-3,7-diamine]	< 500			0			565	555	88.5	2.3	5.8		12	657	656	604	0.2	0.7
CN(C)c1cnn2c(N[C@H]3Cc4ccc(O)cc4C3)cc(-c3cncc(F)c3)nc12 [I-204b, (2S)-2-[[3-(dimethylamino)-5-(5-fluoro-3-pyridyl)pyrazolo[1,5-a]pyrimidin-7-yl]amino]indan-5-ol]	< 500			0			455	454	110	0.9	4		2	67	63	55	0.2	3.2
Cc1cnn2c(N[C@H]3Cc4ccc(O)cc4C3)cc(-c3cncc(F)c3)nc12 [I-219, (2S)-2-[[5-(5-fluoro-3-pyridyl)-3-methyl-pyrazolo[1,5-a]pyrimidin-7-yl]amino]indan-5-ol]	< 500			5			682	678	73.3	0.7	2.4		2	215	132	48.9	0.2	
C[C@@H](O)c1cnn2c(NCCc3c[nH]c4ccccc34)cc(-c3cncc(F)c3)nc12 [I-222a, (1R)-1-[5-(5-Fluoro-3-pyridyl)-7-[2-(1H-indol-3-yl)ethylamino]pyrazolo[1,5-a]pyrimidin-3-yl]ethanol]	< 500			1			1330	1330	36.9	2.4	1.5		16	2240	2230	2870	0.2	1.7
C[C@H](O)c1cnn2c(NCCc3c[nH]c4ccccc34)cc(-c3cncc(F)c3)nc12 [I-222b, (1S)-1-[5-(5-Fluoro-3-pyridyl)-7-[2-(1H-indol-3-yl)ethylamino]pyrazolo[1,5-a]pyrimidin-3-yl]ethanol]	< 500			0			567	564	88.1	1.8	2		51	2870	2860	2170	0.2	3.3

Reference: patent US11358969B2, “Indole AHR inhibitors and uses thereof” (Ikena Oncology, Inc., priority 2017, dated 2022)
